What was measured:
[1] = target: T1, partially purified bovine lens aldose reductase (Bos taurus, UniProt P16116); test: Inhibitory activity on aldose reductase enzyme reaction; type: biochemical; details: for inhibition at 0.1 µg/mL: concentration 0.1 μg/ml; for inhibition at 1 µg/mL: concentration 1.0 μg/ml; for inhibition at 0.02 µg/mL: concentration 0.02 μg/ml
T1 construct: partially purified bovine lens aldose reductase; from tissue; host or cells: bovine lens
Procedure: The preparation of aldose reductase and the determination of its inhibitory action on enzyme reaction activity were carried out pursuant to the procedures disclosed by Haymann et al. in Journal of Biological Chemistry, 240, 877 (1965).
The sample solution to be examined for inhibitory activity was prepared by dissolving a compound of formula (I) according to the present invention in a small amount of methanol and increasing the volume of the resulting methanol solution by diluting it with distilled water up to tenfold volume. A partially purified bovine lens aldose reductase was used for the assay.
To 2.4 ml of a solution of 5×10^-5 M NADPH dissolved in a 2/15M phosphate buffer solution (pH 6.0), 0.4 ml of the enzyme solution (15 m units/ml) and 0.1 ml of the sample solution to be examined were added and the mixture was introduced into a quartz cell in a photoelectric photometer and subjected to pre-incubation at 37° C. for 4 mins. Then, 0.1 ml of a 0.015M D,L-glyceraldehyde solution was added thereto for initiating the enzyme reaction and the decrease in the optical absorption at 340 nm was measured at 37° C. for 4 mins. The inhibitory activity on aldose reductase was calculated by the following equation: [formula] in which A represents the enzyme reaction rate with addition of the inhibitor and B denotes the enzyme reaction rate without addition of the inhibitor.

Lens = test: Suppression of sorbitol accumulation in cultured lens; type: cell-based, Wistar rats; details: rat lens cultured 20 hours with 0.9% glucose; for inhibition at 5 µg/mL: concentration 5 μg/ml; for inhibition at 2.5 µg/mL: concentration 2.5 μg/ml
Procedure: (§1) Lenses and sciatic nerves extirpated from Wistar rats, male, aged 7 weeks, were washed twice with an aseptic buffer solution consisting of 0.3% trisaminomethane, 0.8% NaCl, 0.038% KCl, 0.025% Na2 HPO4 ·12H2 O, 0.1% glucose and 1.85 ml/l of concentrated HCl.
(§2) The lenses and the sciatic nerves were then preincubated for 30 mins. in a culture medium prepared by adding 2 ml of 7.5% NaHCO3 aseptic solution and 5.5 ml of aseptic calf fetus serum to 100 ml of an aseptic culture medium of 0.98% TC Medium 199 (NISSUI Corp.) containing 0.01% of dihydrostreptomycin and 0.01% of benzylpenicillin. Thereafter, the intrinsic culture was effected in a culture medium prepared by adding each sample solution to be examined and 0.9% of glucose to the abovementioned culture medium and permitting culturing to proceed for 20 hours. The incubation was effected at 37° C. in an atmosphere composed of 95% air and 5% CO2.
(§3) After culturing, the cultured samples of lens and sciatic nerve were removed from the culture medium to filter paper and the weight of each of them was measured after the adherent culture solution had been blown off. Then, each of the cultured samples was homogenized with the addition of 1 ml of a cold 8% HClO4 solution and the homogenized mixture was subjected to centrifugation at 10,000 G for 10 mins., whereby a supernatant was obtained. The resulting precipitate was then homogenized again with addition thereto of 0.5 ml of cold 8% HClO4 solution and the homogenized mixture was again subjected to centrifugation in a similar way as above to obtain a further supernatant. This was combined with the previously obtained supernatant and the resulting solution was neutralized with 2N KOH aq. solution and was supplemented with distilled water to a volume of 5 ml. The precipitate formed by neutralization was separated by centrifugation at 3,000 rpm for 10 mins. and the resulting supernatant was employed as the sample for determining the sorbitol content.
(§4) The determination of the sorbitol content in the lens and in the sciatic nerve was carried out in accordance with the method of Bergmeyer in "Methods of Enzymatic Analysis" edited by H. U. Bergmeyer, pp 1323-1326, Academic Press, New York, 1974 and in accordance with the method of Malaon et al. in "Diabetes" 29, 861-864 (1980).
(§5) To 0.5 ml cf the sample solution for determination of sorbitol content obtained as above, 0.9 ml of 0.1M glycine-KOH buffer solution (pH 9.4) containing 1 mM of NAD^+ and 0.1 ml of a solution of sorbitol dehydrogenase of 20 units/ml were added and the resulting mixture was subjected to incubation at 37° C. for 1 hour.
(§6) The content of sorbitol in each tissue was estimated by assuming the increment of the optical absorption at 340 nm to be proportional to the amount of NADH produced by the reaction for the lens and by detecting the fluorescence with an excitation wavelength of 366 nm and a fluorescence wavelength of 425 nm for the sciatic nerve.
(§7) The activity for suppressing accumulation of sorbitol, i.e. the aldose reductase inhibiting activity, was calculated from the determined sorbitol content by the calculation formula [formula] in which A denotes the content of sorbitol per unit weight of the tissue after cultivation with addition of the inhibitor, B denotes the sorbitol content per unit weight of the tissue after cultivation without addition of the inhibitor and C represents the sorbitol content per unit weight of the tissue after cultivation in the medium without addition of glucose and inhibitor.

Sciatic Nerve = test: Suppression of sorbitol accumulation in cultured sciatic nerve; type: cell-based, Wistar rats; details: concentration 1.0 μg/ml, rat sciatic nerve cultured 20 hours with 0.9% glucose; for inhibition at 1 µg/mL: Rattus norvegicus, 20 h
Procedure: as §1, §2, §3, §4, §5, §6, §7

inhibition at 0.1 µg/mL [1] [%]	inhibition at 1 µg/mL [1] [%]	inhibition at 0.02 µg/mL [1] [%]	Compound	inhibition at 5 µg/mL (Lens) [%]	inhibition at 1 µg/mL (Sciatic Nerve) [%]	inhibition at 2.5 µg/mL (Lens) [%]	Inhibition of sorbitol Accumulation (%) Sciatic Nerve (Sciatic Nerve) [%]
60.8	92.8		O=C(O)CCc1ccc(O)c(-c2cc(CCC(=O)O)ccc2OCc2ccccc2)c1 [Example 1, 2-benzyloxy-2'-hydroxy-5,5'-bis (2carboxyethyl) biphenyl]	69.9	64.6		
54	89.1		O=C(O)CCc1ccc(O)c(-c2cc(CCC(=O)O)ccc2OCc2ccc(Br)cc2F)c1 [Example 2, 2-(2-fluoro-4-bromobenzyloxy)-2'-hydroxy-5,5'-bis (2-carboxyethyl) biphenyl]				
73.6	91.9		O=C(O)CCc1ccc(O)c(-c2cc(CCC(=O)O)ccc2OCC2CCCCC2)c1 [Example 3, 2-cyclohexylmethoxy-2'-hydroxy-5,5'-bis (2-carboxyethyl) biphenyl]	85.2	73.2	44.7	64.8
50.4	88.2		O=C(O)CCc1ccc(O)c(-c2cc(CCC(=O)O)ccc2OCC2CCCCO2)c1 (stereo not shown) [Example 4, 2-(tetrahydro-2H-pyran-2-yl) methoxy-2'-hydroxy-5,5'-bis (2-carboxyethyl) biphenyl]				
73.6	90		CCCOc1ccc(CCC(=O)O)cc1-c1cc(CCC(=O)O)ccc1O [Example 5, 2-propoxy-2'-hydroxy-5,5'-bis (2carboxyethyl) biphenyl]	79.2	73.3	32.7	73.8
56.4	90.9		CCCCCOc1ccc(CCC(=O)O)cc1-c1cc(CCC(=O)O)ccc1O [Example 7, 2-pentyloxy-2'-hydroxy-5,5'-bis (2carboxyethyl) biphenyl]				
58.6	91.9		CCCCCCOc1ccc(CCC(=O)O)cc1-c1cc(CCC(=O)O)ccc1O [Example 8, 2-hexyloxy-2'-hydroxy-5,5'-bis (2carboxyethyl) biphenyl]				
65.3	91.9		CCCCCCCOc1ccc(CCC(=O)O)cc1-c1cc(CCC(=O)O)ccc1O [Example 9, 2-heptyloxy-2'-hydroxy-5,5'-bis (2-carboxyethyl) biphenyl]	65	37.8		
67.4	93.7		CCCCCCCCOc1ccc(CCC(=O)O)cc1-c1cc(CCC(=O)O)ccc1O [Example 10, 2-octyloxy-2'-hydroxy-5,5'-bis (2-carboxyethyl) biphenyl]	37.7	33.6		
81.5	92.8		CCCCCCCCCCCOc1ccc(CCC(=O)O)cc1-c1cc(CCC(=O)O)ccc1O [Example 11, 2-undecyloxy-2'-hydroxy-5,5'-bis (2-carboxyethyl) biphenyl]		34.7		
61.9	89.1		CC(C)CCOc1ccc(CCC(=O)O)cc1-c1cc(CCC(=O)O)ccc1O [Example 12, 2-isopentyloxy-2'-hydroxy-5, 5'-bis (2-carboxyethyl) biphenyl]	78.1	59.5		
60.6	95.2		O=C(O)CCCOc1ccc(CCC(=O)O)cc1-c1cc(CCC(=O)O)ccc1O [Example 13, 2-(3-carboxypropoxy)-2'-hydroxy-5, 5'-bis (2-carboxyethyl) biphenyl]				
52.4	90.5		O=C(O)CCc1ccc(O)c(-c2cc(CCC(=O)O)ccc2OCCc2ccccc2)c1 [Example 14, 2-phenethyloxy-2'-hydroxy-5, 5'-bis (2-carboxyethyl) biphenyl]		62.4		
47.6	89.6		O=C(O)CCc1ccc(O)c(-c2cc(CCC(=O)O)ccc2OC2CCCCC2)c1 [Example 15, 2-cyclohexyloxy-2'-hydroxy-5, 5'-bis (2-carboxyethyl) biphenyl]		43.2		
60.6		22	O=C(O)CCCc1ccc(O)c(-c2cc(CCCC(=O)O)ccc2OCc2ccccc2)c1 [Example 18, 2-benzyloxy-2'-hydroxy-5,5'-bis (3-carboxypropyl) biphenyl]				
62.6		23.8	O=C(O)CCCc1ccc(O)c(-c2cc(CCCC(=O)O)ccc2OCc2ccc(Br)cc2F)c1 [Example 19, 2-(2-fluoro-4-bromobenzyloxy)-2'-hydroxy-5, 5'-bis (3-carboxypropyl) biphenyl]				
73.1		18.7	O=C(O)CCCc1ccc(O)c(-c2cc(CCCC(=O)O)ccc2OCC2CCCCC2)c1 [Example 20, 2-cyclohexylmethoxy-2'-hydroxy-5, 5'-bis (3-carboxypropyl) biphenyl]		51.5		
63.9		27.2	CCOc1ccc(CCCC(=O)O)cc1-c1cc(CCCC(=O)O)ccc1O [Example 22, 2-ethoxy-2'-hydroxy-5,5'-bis (3-carboxypropyl) biphenyl]				
69.2		20.5	CCCCCCCOc1ccc(CCCC(=O)O)cc1-c1cc(CCCC(=O)O)ccc1O [Example 25, 2-heptyloxy-2'-hydroxy-5,5'-bis (3-carboxypropyl) biphenyl]				
73.1		35.3	CCCCCCCCOc1ccc(CCCC(=O)O)cc1-c1cc(CCCC(=O)O)ccc1O [Example 26, 2-octyloxy-2'-hydroxy-5,5'-bis (3-carboxypropyl) biphenyl]		43.3		
61.2		23.8	CC(C)CCOc1ccc(CCCC(=O)O)cc1-c1cc(CCCC(=O)O)ccc1O [Example 27, 2-isopentyloxy-2'-hydroxy-5, 5'-bis (3-carboxypropyl) biphenyl]				
71.7		28.8	O=C(O)CCCc1ccc(O)c(-c2cc(CCCC(=O)O)ccc2OCCCCl)c1 [Example 28, 2-(3-chloropropoxy)-2'-hydroxy-5, 5'-bis (3-carboxypropyl) biphenyl]		69		

Compound	inhibition at 0.1 µg/mL [1] [%]	inhibition at 1 µg/mL [1] [%]	inhibition at 0.02 µg/mL [1] [%]	inhibition at 5 µg/mL (Lens) [%]	inhibition at 1 µg/mL (Sciatic Nerve) [%]	inhibition at 2.5 µg/mL (Lens) [%]	Inhibition of sorbitol Accumulation (%) Sciatic Nerve (Sciatic Nerve) [%]
CCCCOc1ccc(CCC(=O)O)cc1-c1cc(CCC(=O)O)ccc1O [Example 6, 2-butoxy-2'-hydroxy-5,5'-bis (2-carboxyethyl) biphenyl]	58.6	90					
CCCCOc1ccc(CCCC(=O)O)cc1-c1cc(CCCC(=O)O)ccc1O [Example 24, 2-butoxy-2'-hydroxy-5,5'-bis (3-carboxypropyl) biphenyl]	62.6		25.6				

— patent US5136090A, “Biphenyl-5,5'-bis-alkanoic acid derivatives, their production and aldose reductase inhibitors containing the same” (Toyo Jozo Kabushiki Kaisha, priority 1990, dated 1992)
